Patent EP4691485A1, “MUCOSAL ADJUVANT” (priority 2023, dated 2024)

Assays:
Assay type in all cases: in vivo, BALB/c mice
[1] = test system: Influenza HA protein antigen (A/California/7/2009(H1N1)pdm); experiment: ELISA of antigen-specific IgA and IgG after nasal vaccination with CL401, CL413 or CL531 (Example 2); settings: 1 µg HA alone or with 0.662 nmol or 6.62 nmol test compound
[2] = test system: HA antigen (A/Singapore/GP1908/2015(IVR-180)(H1N1)pdm09); experiment: ELISA of antigen-specific IgA and IgG after nasal vaccination (Example 1); settings: HA 0.1 µg alone or with 3 µg adjuvant, twice; for antigen-specific IgA level in the nasal lavage fluid: day 38, 2^2-fold dilution, Fig. 2; for antigen-specific IgG level in serum: day 38, 2^12-fold dilution, Fig. 3
[3] = test system: A/Singapore/GP1908/2015(IVR-180)(H1N1)pdm09; settings: HA 0.1 µg alone or with 3 µg adjuvant, nasal, twice; for Serum HI antibody titers, Geometric Mean Titer (GMT): 3-week interval, serum day 38
[4] = test system: influenza virus (A/Singapore/GP1908/2015(IVR-180)(H1N1)pdm09); settings: HA 0.1 µg alone or with 3 µg adjuvant, twice, 3-week interval, sampled day 38, Fig. 1
SARS-CoV-2 S protein = experiment: ELISA of antigen-specific IgA and IgG after nasal vaccination with SARS-CoV-2 antigen (Example 3); settings: 3 µg S protein alone or with 0.3 µg TY001 S-form
[5] = test system: Influenza virus HA protein antigen A/Guangdong-Maonan/SWL1536/2019(CNIC-1909)(H1N1); experiment: ELISA of antigen-specific IgA and IgG, improved formulation with chondroitin sulfate sodium (Example 4); settings: Fig. 7
Protocol: For the nasal administration test, 7-week-old female BALB/c mice were used, with 8 mice per group. Influenza virus HA protein antigen A/Guangdong-Maonan/SWL1536/2019(CNIC-1909)(H1N1) (Research Foundation for Microbial Diseases of Osaka University) was used. Vaccine groups included HA 0.1 µg alone, or HA 0.1 µg with 0.1 µg of TY001 S-form as adjuvant, and groups with/without 0.01% chondroitin sulfate sodium as an additive.
The vaccine solution was administered intranasally to mice at 5 µL per nostril (10 µL/mouse) twice, with a 3-week interval. Two weeks after the second administration (day 35), nasal lavage fluid and serum were collected, and antigen-specific IgA levels in nasal lavage fluid and IgG levels in serum were measured by ELISA.

[6] = test system: Influenza virus HA protein antigen: A/Guangdong-Maonan/SWL1536/2019(CNIC-1909)(H1N1); experiment: Comparative test with various adjuvants: ELISA of antigen-specific IgA and IgG (Example 6); settings: HA 0.1 µg + 1 µg TY001 S-form (0.01% chondroitin sulfate sodium), twice
Protocol: For the nasal administration test, 8-week-old female BALB/c mice (6 mice per group) were used. Influenza virus HA protein antigen: A/Guangdong-Maonan/SWL1536/2019(CNIC-1909)(H1N1) (Osaka University Microbial Disease Research Institute) was used. Vaccine formulations included HA 0.1 µg alone, and those co-administered intranasally with 1 µg of TY001 S-form (formulation containing 0.01% chondroitin sulfate sodium as an additive), Cholera Toxin B subunit (CTB) (Fujifilm Wako Pure Chemical Corporation), CpG ODN (ODN 1826) (InvivoGen), or Polyinosinic-polycytidylic acid (Poly(I:C)) (InvivoGen). Each vaccine solution was administered into the nasal cavity, 5 µL into each nostril (10 µL/mouse), twice at a 3-week interval. A group subcutaneously administered with HA 0.1 µg + Alum 2 mg was also used. Two weeks after the second administration (day 35), nasal wash fluid, bronchoalveolar lavage fluid, and serum were collected. Antigen-specific IgA in nasal wash fluid and bronchoalveolar lavage fluid, and IgG in serum and bronchoalveolar lavage fluid were measured by ELISA.

[7] = test system: Influenza virus HA protein antigen: A/Guangdong-Maonan/SWL1536/2019(CNIC-1909)(H1N1); experiment: ELISA of antigen-specific IgA and IgG after vaccination and virus challenge (Example 5); settings: twice, HA 0.1 µg alone or with TY001 S-form 0.01-0.3 µg and 0.01% chondroitin sulfate sodium
Protocol: (§1) For the nasal administration test, 7-week-old female BALB/c mice (9-10 mice per group) were used. Influenza virus HA protein antigen: A/Guangdong-Maonan/SWL1536/2019(CNIC-1909)(H1N1) and influenza virus: A/Guangdong-Maonan/SWL1536/2019(CNIC-1909)(H1N1) (Osaka University Microbial Disease Research Institute) were used. The vaccine formulations included HA 0.1 µg alone, and a formulation containing HA 0.1 µg co-administered with TY001 S-form at doses of 0.01-0.3 µg, and 0.01% chondroitin sulfate sodium as an additive. Vaccine solutions were administered into the nasal cavity, 5 µL into each nostril (10 µL/mouse), twice at a 3-week interval. As a control, a group subcutaneously administered with HA 0.1 µg alone was set up. Two weeks after the second administration (day 35), viral fluid was administered at 2 µL into each nostril (1x10^5 TCID50/mouse). Three days later (day 38), nasal wash fluid and serum were collected. The viral titer in the nasal wash fluid, antigen-specific IgA in nasal wash fluid, and IgG in serum were measured by ELISA.

[8] = test system: influenza virus: A/Guangdong-Maonan/SWL1536/2019(CNIC-1909)(H1N1); experiment: Infection protection test: viral titer in nasal wash fluid (Example 5)
Protocol: as §1

[9] = HA 0.1 µg + 0.1 µg TY001 S-form + 0.01% chondroitin sulfate sodium, compared with no additive
[10] = HA 0.1 µg + 0.1 µg TY001 S-form, nasal, twice, 3-week interval, day 35

CCCCCCCCCCCCCCCC(=O)OCC(CSC[C@H](N)C(=O)Nc1ccc(Cn2c(O)nc3c(N)nc(NCCCC)nc32)cc1)OC(=O)CCCCCCCCCCCCCCC (some centres unmarked) [CL401]
antigen-specific IgG antibodies in plasma ([1]; day 0 and day 14, day 27, rank order, Fig. 4 lower panel): CL413 > CL531 > CL401 | antigen-specific IgA in nasal lavage fluid ([1]; day 0 and day 14, day 28, rank order, Fig. 4 upper panel): CL413 > CL531 > CL401

CCCCCCCCCCCCCCCC(=O)OC[C@H](CSC[C@H](N)C(=O)NCCCNCCCCNCCCNC(=O)CNC(=O)c1ccc(Cn2c(O)nc3c(N)nc(NCCCC)nc32)cc1)OC(=O)CCCCCCCCCCCCCCC [TY001 R-form, (20R,24R)-20-amino-1-(4-((6-amino-2-(butylamino)-8-hydroxy-9H-purin-9-yl)methyl)phenyl)-1,4,19-trioxo-22-thia-2,5,9,14,18-pentaazapentacosane-24,25-diyl dipalmitate]
antigen-specific IgA level in the nasal lavage fluid [2]: showed induction of antigen-specific IgA antibodies in the nasal cavity | antigen-specific IgG level in serum [2]: showed an increase | HI antibody titer in serum [3]: showed an increase | Serum HI antibody titers, Geometric Mean Titer (GMT) [3]: 69.6 | viral titer in the nasal lavage fluid [4]: showed suppression of viral infection

CCCCCCCCCCCCCCCC(=O)OC[C@@H](CSC[C@H](N)C(=O)NCCCNCCCCNCCCNC(=O)CNC(=O)c1ccc(Cn2c(O)nc3c(N)nc(NCCCC)nc32)cc1)OC(=O)CCCCCCCCCCCCCCC [TY001 S-form, (20R,24S)-20-amino-1-(4-((6-amino-2-(butylamino)-8-hydroxy-9H-purin-9-yl)methyl)phenyl)-1,4,19-trioxo-22-thia-2,5,9,14,18-pentaazapentacosane-24,25-diyl dipalmitate]
antigen-specific IgA level in the nasal lavage fluid [2]: showed induction of antigen-specific IgA antibodies in the nasal cavity | antigen-specific IgG level in serum [2]: showed an increase | antigen-specific IgA level in the nasal lavage fluid (SARS-CoV-2 S protein; day 0 and 21, day 35, 2^3-fold dilution, Fig. 5): showed induction of antigen-specific IgA antibodies in the nasal cavity | antigen-specific IgG level in serum (SARS-CoV-2 S protein; day 0 and 21, day 35, 2^8-fold dilution, Fig. 6): showed an increase in antigen-specific IgG antibodies | HI antibody titer in serum [3]: showed an increase | Serum HI antibody titers, Geometric Mean Titer (GMT) [3]: 85.7 | viral titer in the nasal lavage fluid [4]: showed suppression of viral infection | antibody-inducing effect, IgA in nasal wash fluid [5, 9]: stronger | antibody-inducing effect, IgG in serum [5, 9]: stronger | antigen-specific IgA in nasal wash fluid [5, 10]: induced | antigen-specific IgG in serum [5, 10]: induced | antigen-specific IgA in bronchoalveolar lavage fluid ([6]; nasal, day 35, Fig. 10): also induced | antigen-specific IgG in bronchoalveolar lavage fluid ([6]; nasal, day 35, Fig. 10): also induced | antibody-inducing ability (antigen-specific IgA in nasal wash fluid and bronchoalveolar lavage fluid, IgG in serum and bronchoalveolar lavage fluid) ([6]; compared with CTB, CpG ODN (ODN 1826), Poly(I:C) nasal and Alum 2 mg subcutaneous, day 35, Fig. 10): stronger antibody-inducing ability at a lower dose compared to any other adjuvant | antigen-specific IgG in serum ([7]; nasal, day 38, Fig. 9): dose-dependent induction of nasal IgA and serum IgG | antigen-specific IgA in nasal wash fluid ([7]; day 38, Fig. 9): dose-dependent induction of nasal IgA and serum IgG | viral titer in nasal wash fluid ([8]; HA 0.1 µg + TY001 S-form 0.1 µg + 0.01% chondroitin sulfate sodium, Fig. 8): no virus detected in any individual | viral titer in nasal wash fluid ([8]; HA 0.1 µg + TY001 S-form 0.3 µg + 0.01% chondroitin sulfate sodium, Fig. 8): no virus detected in any individual | viral titer in nasal wash fluid ([8]; twice, HA 0.1 µg alone or with TY001 S-form 0.01-0.3 µg and 0.01% chondroitin sulfate sodium, virus 1x10^5 TCID50/mouse day 35, day 38, Fig. 8): dose-dependent inhibition of viral infection
